Measurements reported in publication PMC6895203, “Conformational pathway provides unique sensitivity to a synaptic mGluR” (Nature Communications, 2019).
Several values for one entry are separate records, joined by “and”; a condition that tells them apart may be missing. Identical values can stand only once.

Legend:
mGluR5(YADA) homodimer = details: 10 mM glutamate ref 46; cited from earlier work
[1] = target: CLIP-mGluR2/SNAP-mGluR7 heterodimer (mGluR2/7) (Rattus norvegicus, UniProt P31421+P35400); experiment: Live-cell ensemble FRET of mGluR2/7 heterodimer in HEK293 cells; format: cell-based; design: Flag (N); HA (N); made in house; host or cells: HEK293T; details: for normalized FRET response (Figure 3c titration), AVG: right block
Chain of CLIP-mGluR2/SNAP-mGluR7 heterodimer (mGluR2/7) (P31421 19-872): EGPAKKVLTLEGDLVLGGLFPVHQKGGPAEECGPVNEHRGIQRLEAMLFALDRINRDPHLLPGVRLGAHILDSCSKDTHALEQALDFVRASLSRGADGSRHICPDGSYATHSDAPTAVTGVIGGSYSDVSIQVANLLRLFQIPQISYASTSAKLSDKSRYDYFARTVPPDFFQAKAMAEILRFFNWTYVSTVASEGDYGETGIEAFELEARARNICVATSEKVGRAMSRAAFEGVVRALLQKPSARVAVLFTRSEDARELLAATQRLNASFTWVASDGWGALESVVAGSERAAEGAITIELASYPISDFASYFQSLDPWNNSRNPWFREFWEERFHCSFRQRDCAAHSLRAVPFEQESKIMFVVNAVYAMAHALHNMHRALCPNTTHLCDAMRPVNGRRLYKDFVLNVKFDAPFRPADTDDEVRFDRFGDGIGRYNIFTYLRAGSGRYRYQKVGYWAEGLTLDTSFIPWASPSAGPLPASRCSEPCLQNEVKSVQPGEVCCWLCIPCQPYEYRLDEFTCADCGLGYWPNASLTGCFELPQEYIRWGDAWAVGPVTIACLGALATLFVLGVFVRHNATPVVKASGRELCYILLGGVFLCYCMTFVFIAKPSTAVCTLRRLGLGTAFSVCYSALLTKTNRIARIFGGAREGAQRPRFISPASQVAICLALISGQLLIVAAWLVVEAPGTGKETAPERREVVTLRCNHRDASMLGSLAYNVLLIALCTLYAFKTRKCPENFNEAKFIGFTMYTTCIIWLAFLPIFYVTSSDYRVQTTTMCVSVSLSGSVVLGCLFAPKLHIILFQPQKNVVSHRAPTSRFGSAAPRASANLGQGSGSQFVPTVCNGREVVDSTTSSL
Chain of CLIP-mGluR2/SNAP-mGluR7 heterodimer (mGluR2/7) (P35400 35-915): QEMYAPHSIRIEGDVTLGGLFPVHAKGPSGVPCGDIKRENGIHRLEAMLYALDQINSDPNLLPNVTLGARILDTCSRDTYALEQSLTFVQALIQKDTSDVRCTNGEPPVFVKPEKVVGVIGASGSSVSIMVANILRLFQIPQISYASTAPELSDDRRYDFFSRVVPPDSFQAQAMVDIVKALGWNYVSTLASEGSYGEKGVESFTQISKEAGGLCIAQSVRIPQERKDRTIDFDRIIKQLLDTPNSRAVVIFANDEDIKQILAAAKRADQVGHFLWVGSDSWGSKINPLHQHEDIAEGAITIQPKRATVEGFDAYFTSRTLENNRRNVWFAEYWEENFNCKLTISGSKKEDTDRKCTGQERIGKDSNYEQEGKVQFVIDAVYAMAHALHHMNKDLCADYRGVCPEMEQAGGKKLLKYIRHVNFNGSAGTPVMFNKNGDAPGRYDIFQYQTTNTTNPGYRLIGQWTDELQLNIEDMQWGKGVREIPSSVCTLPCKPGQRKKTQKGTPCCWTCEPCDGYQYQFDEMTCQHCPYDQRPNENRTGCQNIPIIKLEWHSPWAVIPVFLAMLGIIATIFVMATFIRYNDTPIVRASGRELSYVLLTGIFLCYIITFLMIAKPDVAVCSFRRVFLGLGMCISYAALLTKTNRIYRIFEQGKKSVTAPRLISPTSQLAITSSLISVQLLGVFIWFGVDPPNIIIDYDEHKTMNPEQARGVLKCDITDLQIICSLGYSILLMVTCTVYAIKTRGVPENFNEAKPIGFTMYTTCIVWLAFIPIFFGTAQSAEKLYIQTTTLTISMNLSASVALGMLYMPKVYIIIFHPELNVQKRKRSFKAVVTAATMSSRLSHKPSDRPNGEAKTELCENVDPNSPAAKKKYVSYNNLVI
Protocol: The co-expression of SNAP-mGluR7 and CLIP-mGluR2 is expected to yield three dimer stoichiometries: the homodimeric SNAP-mGluR7/SNAP-mGluR7; the homodimeric CLIP-mGluR2/CLIP-mGluR2, and the heterodimeric SNAP-mGluR7/CLIP-mGluR2. Of these, only the heterodimer combines the donor and acceptor and produces a FRET signal.
After labeling, cells were mounted on an upright, scanning confocal microscope (Zeiss LSM 780) and imaged with a 20X objective. […] Clusters of cells were analyzed together and FRET was calculated as FRET = (IA)/(ID + IA), in which ID is the fluorescence donor intensity and IA is the fluorescence acceptor intensity. […] Fitting of dose–response curves was performed using Prism (Graphpad). […] Drugs were delivered with a gravity-driven perfusion system.

[2] = target: T1, CLIP-mGluR2/SNAP-mGluR2(YADA) dimer (Rattus norvegicus, UniProt P31421, D295A/Y216A); experiment: smFRET on CLIP-mGluR2/SNAP-mGluR2(YADA) dimers; format: biochemical; details: for mGluR2/2(YADA) Histogram area: Figure 4c
T1 construct: Flag (N); HA (N); made in house; host or cells: HEK293T
T1 sequence (P31421 19-872, stated change not applied): as the sequence (P31421 19-872) above
T1 sequence (P31421 19-872 Y216A/D295A): as the sequence (P31421 19-872) above, with Y198A, D277A counted along it
Text: To examine this, we tested the behavior of a heterodimer that co-assembles a wild-type mGluR2 with a binding site mutant version of mGluR2, mGluR2 (Y216A and D295A; known as the YADA mutant). […] We co-expressed CLIP-mGluR2 and SNAP-mGluR2(YADA) and labeled with the SNAP-selective acceptor dye BG-Alexa-647 and the CLIP-selective donor dye BC-DY-547. […] These findings indicate that closure of a single wild-type mGluR2 subunit is much more efficient in activating the receptor when partnered in the dimer with an mGluR7 than with another mGluR2.
(§1) (100 ms time resolution).

SNAP-mGluR2(F756D) = target: T2, SNAP-mGluR2(F756D) (Rattus norvegicus, UniProt P31421, F756D); experiment: Whole-cell patch clamp of GIRK1 current, SNAP-mGluR2(F756D) expressed alone; format: cell-based; details: SNAP-mGluR2-F756D alone; 1 mM Glu; single cells
T2 construct: HA (N); expressed in transfected cells; host or cells: HEK293 / HEK293T
T2 sequence (P31421 19-872 F756D): as the sequence (P31421 19-872) above, with F738D counted along it
Text: We explored this further by examining trans-activation, whereby binding of ligand to one subunit activates G-protein interaction in the partner subunit[46],[47]. To specifically activate only the mGluR2 subunit of the mGluR2/7 heterodimer, we selectively attached a photoswitched tethered ligand to mGluR2.
Illumination was applied to the entire field of view using either a Polychrome V monochromator (TILL Photonics) through a 20× objective, or a Lambda DG4 high-speed wavelength switcher (Sutter Instruments) with 380 nm and 500 nm filters through a 40× objective. pClamp software was used for both data acquisition and control of illumination.

[3] = target: SNAP-mGluR7/SNAP-mGluR7 homodimer (mGluR7/7) (Rattus norvegicus, UniProt P35400); experiment: smFRET on isolated immune-purified SNAP-mGluR7/7 dimers; details: read-out: EC50 of low FRET peak concentration-response (apparent affinity); smFRET, isolated receptor
Chain of SNAP-mGluR7/SNAP-mGluR7 homodimer (mGluR7/7) (P35400 35-915): as the sequence (P35400 35-915) above

[4] = target: SNAP-mGluR2/SNAP-mGluR2 (mGluR2/2) (Rattus norvegicus, UniProt P31421); experiment: Whole-cell patch clamp of GIRK1 current, mGluR2/2 homodimer; details: mGluR2/2+GIRK; for titration values, single replicates 1-3: individual replicates; for titration values, AVG (normalized response): Supplemental Figure 1a
Chain of SNAP-mGluR2/SNAP-mGluR2 (mGluR2/2) (P31421 19-872): as the sequence (P31421 19-872) above

[5] = target: T3, SNAP-mGluR7(N74K) homodimer (Rattus norvegicus, UniProt P35400, N74K); experiment: smFRET on SNAP-mGluR7(N74K) homodimers; format: biochemical; details: 10 mM glutamate; wild-type at >10X higher glutamate
T3 construct: HA (N); made in house; host or cells: HEK293T
T3 sequence (P35400 35-915 N74K): as the sequence (P35400 35-915) above, with N40K counted along it
Text: as §1

N[C@@H](CCC(=O)O)C(=O)O [glutamate]
activation by glutamate (mGluR5(YADA) homodimer): not be activated | major high affinity component, share of total ΔFRET ([1]; live-cell ensemble FRET): ~ 80% | minor lower affinity component, share of total ΔFRET ([1]; live-cell ensemble FRET): ~ 20% | normalized FRET response (Figure 3c titration), AVG ([1]; Glu 1uM, normalized to 10 mM): 0.05708 | normalized FRET response (Figure 3c titration), AVG ([1]; Glu 2uM): 0.1039 | normalized FRET response (Figure 3c titration), AVG ([1]; Glu 5uM): 0.2535 | normalized FRET response (Figure 3c titration), AVG ([1]; Glu 10uM): 0.4051 | normalized FRET response (Figure 3c titration), AVG ([1]; Glu 20uM): 0.6543 | normalized FRET response (Figure 3c titration), AVG ([1]; Glu 50uM): 0.6971 | normalized FRET response (Figure 3c titration), AVG ([1]; Glu 100uM): 0.7929 | normalized FRET response (Figure 3c titration), AVG ([1]; Glu 200uM): 0.7943 | normalized FRET response (Figure 3c titration), AVG ([1]; Glu 500uM): 0.8921 | normalized FRET response (Figure 3c titration), AVG ([1]; Glu 1mM): 0.9417 | normalized FRET response (Figure 3c titration), AVG ([1]; Glu 2mM): 1.009 | normalized FRET response (Figure 3c titration), AVG ([1]; Glu 10mM (normalization point)): 1 | mGluR2/2(YADA) Histogram area ([2]; Glu 1e-6): 0.0005 | mGluR2/2(YADA) Histogram area ([2]; Glu 3e-6): 0.0013 | mGluR2/2(YADA) Histogram area ([2]; Glu 1e-5): 0.00167 | mGluR2/2(YADA) Histogram area ([2]; Glu 3e-5): 0.00171 | mGluR2/2(YADA) Histogram area ([2]; Glu 0.0001): 0.00339 | mGluR2/2(YADA) Histogram area ([2]; Glu 0.0003): 0.00443 | mGluR2/2(YADA) Histogram area ([2]; Glu 0.001): 0.00578 | mGluR2/2(YADA) Histogram area ([2]; Glu 0.01): 0.00605 | mGluR2/2(YADA) Histogram area ([2]; Glu 0.1): 0.00616 | maximal occupancy of the low FRET activated conformation ([2]; high glutamate): ~ 30% | Current, 1 mM Glu (SNAP-mGluR2(F756D)): 0 | EC50 [3]: 38.3 mM and 38 mM | titration values, single replicates 1-3 ([4]; Glu 1e-6, listed as Glu): 0.1214 and 0.05844 and 0.0437 | titration values, AVG (normalized response) ([4]; Glu 1e-5): 0.4456 | titration values, single replicates 1-3 ([4]; Glu 1e-5, listed as Glu): 0.4624 and 0.4291 and 0.4452 | titration values, AVG (normalized response) ([4]; Glu 0.0001): 0.9358 | titration values, single replicates 1-3 ([4]; Glu 0.0001, listed as Glu): 0.9459 and 0.9335 and 0.9281 | titration values, AVG (normalized response) ([4]; Glu 0.001): 1.022 | titration values, single replicates 1-3 ([4]; Glu 0.001, listed as Glu): 1.05 and 1.012 and 1.0027 | titration values, AVG (normalized response) ([4]; Glu 0.01 (normalisation point)): 1 | titration values, single replicates 1-3 ([4]; Glu 0.01 (normalisation point)): 1 | occupancy of activated low FRET state vs wild-type mGluR7 [5]: greater occupancy of the activated low FRET (~0.2) state
